Like-named read-outs stand apart in the source and are kept apart here.
How the values were obtained:
[1] = molecular target: T1, malate dehydrogenase (MDH) (Sus scrofa, UniProt P00346); assay: Activity of malate dehydrogenase in pig brain mitochondria; format: biochemical; conditions: mean ± SD, N = 3
T1 construct: used to determinate mitochondrial enzymes activities (ETC complexes, CS, malate dehydrogenase, and MAO); from tissue; host or cells: pig brain cortex mitochondria (frozen, ultrasonicated)
T1 sequence (P00346 25-338): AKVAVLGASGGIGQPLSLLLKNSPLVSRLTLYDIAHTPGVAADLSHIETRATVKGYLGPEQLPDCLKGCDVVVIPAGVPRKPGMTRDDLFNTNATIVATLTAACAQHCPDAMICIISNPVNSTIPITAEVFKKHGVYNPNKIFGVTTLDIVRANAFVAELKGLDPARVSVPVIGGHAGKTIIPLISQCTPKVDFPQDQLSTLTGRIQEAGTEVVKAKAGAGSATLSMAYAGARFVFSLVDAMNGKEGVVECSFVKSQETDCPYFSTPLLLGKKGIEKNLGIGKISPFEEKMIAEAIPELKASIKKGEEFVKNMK
Description: Ultrasonicated mitochondria were incubated with the tested drugs for 30 min at 30 °C, with a corresponding drug-free control for every measurement. The activities of mitochondrial enzymes were determined as the absorbance measured with a GENESYS 180 UV-Vis spectrophotometer (Thermo Fisher Scientific, Waltham, MA, USA). The conversion of oxaloacetate to malate was used to measure malate dehydrogenase (MDH) activity. The reaction was started by adding oxaloacetate and nicotinamide adenine dinucleotide (NADH) (measured at 340 nm for 3 min). […] […] An ATP standard curve was constructed.

[2] = molecular target: T2, citrate synthase (CS) (Sus scrofa, UniProt P00889); assay: Activity of citrate synthase in pig brain mitochondria; format: biochemical; conditions: mean ± SD, N = 3
T2 construct: used to determinate mitochondrial enzymes activities (ETC complexes, CS, malate dehydrogenase, and MAO); from tissue; host or cells: pig brain cortex mitochondria (frozen, ultrasonicated)
T2 sequence (P00889 28-464): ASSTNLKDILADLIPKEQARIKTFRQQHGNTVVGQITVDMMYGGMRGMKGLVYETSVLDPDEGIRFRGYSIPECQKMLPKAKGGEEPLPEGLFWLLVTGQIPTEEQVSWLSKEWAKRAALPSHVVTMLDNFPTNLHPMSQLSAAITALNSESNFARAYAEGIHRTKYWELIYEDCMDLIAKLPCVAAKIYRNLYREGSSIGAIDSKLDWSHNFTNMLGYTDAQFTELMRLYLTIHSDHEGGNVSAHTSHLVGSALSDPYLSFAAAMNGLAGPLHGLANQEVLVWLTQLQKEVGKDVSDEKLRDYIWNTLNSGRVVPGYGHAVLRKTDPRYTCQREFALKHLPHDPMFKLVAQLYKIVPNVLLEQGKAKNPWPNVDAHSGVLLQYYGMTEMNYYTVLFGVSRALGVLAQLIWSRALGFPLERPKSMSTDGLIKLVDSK
Description: Ultrasonicated mitochondria were incubated with the tested drugs for 30 min at 30 °C, with a corresponding drug-free control for every measurement. The activities of mitochondrial enzymes were determined as the absorbance measured with a GENESYS 180 UV-Vis spectrophotometer (Thermo Fisher Scientific, Waltham, MA, USA). […] […] […] An ATP standard curve was constructed.

[3] = molecular target: T3, MAO-A (Sus scrofa, UniProt Q6Q2J0); assay: MAO-A activity, radiolabeled [3H]serotonin substrate, pig brain mitochondria; format: biochemical
T3 construct: from tissue; host or cells: pig brain cortex mitochondria
T3 sequence (Q6Q2J0 1-527): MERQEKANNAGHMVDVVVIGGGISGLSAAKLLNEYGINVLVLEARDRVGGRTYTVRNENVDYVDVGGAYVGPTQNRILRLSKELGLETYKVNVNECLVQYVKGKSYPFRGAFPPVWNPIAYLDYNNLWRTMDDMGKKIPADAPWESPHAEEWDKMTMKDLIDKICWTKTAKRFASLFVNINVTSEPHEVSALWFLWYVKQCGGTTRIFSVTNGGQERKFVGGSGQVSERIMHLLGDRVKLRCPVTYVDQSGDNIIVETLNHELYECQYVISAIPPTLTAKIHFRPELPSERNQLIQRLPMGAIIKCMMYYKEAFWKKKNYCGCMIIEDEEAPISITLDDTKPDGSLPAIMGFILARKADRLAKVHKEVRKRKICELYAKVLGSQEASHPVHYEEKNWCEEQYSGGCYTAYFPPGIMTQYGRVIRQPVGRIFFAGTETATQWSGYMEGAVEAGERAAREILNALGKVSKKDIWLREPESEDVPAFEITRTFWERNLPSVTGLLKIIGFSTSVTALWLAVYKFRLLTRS
Description: (§1) KH buffer was used to preincubate mitochondria (final concentration of 800 µg/mL) with the tested drugs (concentration range of 0.1–300 µmol/L). MAO enzymatic activity was measured using radiolabeled substrates ([^3H]serotonin for MAO-A and [^14C]PEA for MAO-B). The reaction was terminated with hydrochloric acid, the organic phase was separated, and the radioactivity was determined by liquid scintillation counting (LS 6000IC, Beckman Instruments, Inc., Fullerton, CA, USA).
(§2) Four-parametric logistic regression was used to analyze inhibition of respiratory rate and MAO activity to determine half-maximal inhibitory concentration (IC50), residual activity, and Hill slope. Prism software from GraphPad (San Diego, CA, USA) was used for this analysis.

[4] = test system: complex II-linked respiration in isolated mitochondria; assay: Complex II-linked respiration, high-resolution respirometry in isolated mitochondria; format: biochemical, pig
Description: (§3) The mitochondrial fraction was isolated and purified from the pig brain cortex. For high-resolution respirometry and ATP assays, freshly prepared mitochondria were kept on ice. Part of the mitochondria was frozen, stored at −70 °C, and used to determinate mitochondrial enzymes activities (ETC complexes, CS, malate dehydrogenase, and MAO).
The high-resolution Oxygraph-2k (Oroboros Instruments Corp, Innsbruck, Austria) was used to measure mitochondrial oxygen consumption rate. […] The final protein concentration was 0.05–0.14 mg/mL.
(§4) Respiration rate (oxygen flux) was quantified as the number of pmol of oxygen consumed per second per mg of a protein.
as §2

[5] = molecular target: T4, MAO-B (Sus scrofa, UniProt Q6PLK3); assay: MAO-B activity, radiolabeled [14C]PEA substrate, pig brain mitochondria; format: biochemical; conditions: for Hill Slope, MAO-B / IC50 / Residual Activity, MAO-B: mean ± SEM, four measurements
T4 construct: from tissue; host or cells: pig brain cortex mitochondria
T4 sequence (Q6PLK3 1-520): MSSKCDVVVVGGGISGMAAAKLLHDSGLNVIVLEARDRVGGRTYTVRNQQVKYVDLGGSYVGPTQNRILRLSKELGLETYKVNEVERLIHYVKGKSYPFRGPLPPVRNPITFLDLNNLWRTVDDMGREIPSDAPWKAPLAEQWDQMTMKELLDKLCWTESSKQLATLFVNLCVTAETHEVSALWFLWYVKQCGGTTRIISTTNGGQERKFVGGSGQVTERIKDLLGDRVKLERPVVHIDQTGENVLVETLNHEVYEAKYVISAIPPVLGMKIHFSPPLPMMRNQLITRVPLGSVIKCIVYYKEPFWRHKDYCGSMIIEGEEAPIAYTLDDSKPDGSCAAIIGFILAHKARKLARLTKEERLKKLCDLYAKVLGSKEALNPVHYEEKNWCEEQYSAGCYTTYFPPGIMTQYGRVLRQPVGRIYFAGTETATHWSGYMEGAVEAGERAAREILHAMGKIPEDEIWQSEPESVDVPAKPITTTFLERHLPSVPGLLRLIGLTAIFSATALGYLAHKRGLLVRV
Description: as §1, §2

[6] = test system: complex I-linked respiration in isolated mitochondria; assay: Complex I-linked respiration, high-resolution respirometry in isolated mitochondria; format: biochemical, pig; conditions: for IC50: four-parameter logistic; for IC50 / Residual Activity, complex I-linked respiration: mean ± SEM, four measurements
Description: as §3
The high-resolution Oxygraph-2k (Oroboros Instruments Corp, Innsbruck, Austria) was used to measure mitochondrial oxygen consumption rate.
as §4, §2

SMILES | MDH (% of control) ([1]; 10 μM) | MDH (% of control) ([1]; 100 μM) | CS (% of control) ([2]; 10 μM) | CS (% of control) ([2]; 100 μM) | Inhibition (partial/full), MAO-A [3] | IC50 ([3]; mean ± SEM, four measurements) [µM] | Residual Activity, MAO-A ([3]; mean ± SEM, four measurements) [rel.u.] | Inhibition (partial/full), MAO-B [5] | Hill Slope, MAO-B [5] | IC50 [5] [µM] | Residual Activity, MAO-B [5] [rel.u.] | Inhibition (partial/full), complex I-linked respiration [6] | IC50 [6] [µM] | Residual Activity, complex I-linked respiration [6] [rel.u.] | other results
CC(NC(C)(C)C)C(=O)c1cccc(Cl)c1 (stereo not shown) [bupropion] | 99.2 ± 2.90 % of control | 99.6 ± 2.72 % of control | 105.6 ± 1.29 % of control | 99.5 ± 0.93 % of control | partial | 20.1 ± 5.68 | 0.235 ± 0.050 | partial | 1.68 ± 0.20 | 31.5 ± 3.32 | 0.410 ± 0.018 | – | – | – | Inhibition (partial/full), MAO-A ([3]; listed as BUP): partial inhibitors; Inhibition (partial/full), complex II-linked respiration [4]: partial; IC50 ([4]; four-parameter logistic, mean ± SEM, four measurements): 10.6 ± 4.49 µM; Inhibition (partial/full), complex II-linked respiration ([4]; listed as BUP): weak partial inhibitor; Residual Activity, complex II-linked respiration ([4]; mean ± SEM, four measurements): 0.690 ± 0.045 rel.u.; Inhibition (partial/full), MAO-B ([5]; listed as BUP): partial MAO-B inhibitors
CN(C)CCC[C@@]1(c2ccc(F)cc2)OCc2cc(C#N)ccc21 [escitalopram] | – | – | – | – | full | 8.78 ± 2.27 | – | full | – | 15.2 ± 2.23 | – | partial | 0.14 ± 0.08 | 0.774 ± 0.015 | Inhibition (partial/full), MAO-A ([3]; listed as ESC): full inhibitors; Inhibition (partial/full), MAO-B ([5]; listed as ESC): full inhibitors
Fc1ccc([C@@H]2CCNC[C@H]2COc2ccc3c(c2)OCO3)cc1 [paroxetine] | 100.1 ± 2.22 % of control | 97.9 ± 1.71 % of control | 105.8 ± 1.69 % of control | 98.4 ± 0.85 % of control | full | 0.47 ± 0.06 | 0.007 ± 0.017 | full | 1.06 ± 0.10 | 2.19 ± 0.21 | 0.015 ± 0.021 | partial | 26.7 ± 6.73 | 0.672 ± 0.029 | Inhibition (partial/full), MAO-A ([3]; listed as PAR): full inhibitors; Hill Slope, MAO-A ([3]; mean ± SEM, four measurements): 1.65 ± 0.22; Inhibition (partial/full), MAO-B ([5]; listed as PAR): full inhibitors

From article PMC10294837 (Antioxidants, 2023)
